Measurements taken from PubChem BioAssay (NCI).
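How tested: cells in 96-well plates exposed to compound for 48 hours at five concentrations. At the GI50, growth is halved. At the TGI there is no net growth.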

Legend:
Assay in all cases: NCI anticancer screen, dose series, 48 h
OVCAR-3 ovarian = tested on: OVCAR-3 ovarian
SF-539 CNS = tested on: SF-539 CNS
UACC-62 melanoma = tested on: UACC-62 melanoma
NCI-H226 lung = tested on: NCI-H226 lung
HCC-2998 colon = tested on: HCC-2998 colon
MDA-MB-435 = tested on: MDA-MB-435
RPMI-8226 leukemia = tested on: RPMI-8226 leukemia
SK-MEL-28 melanoma = tested on: SK-MEL-28 melanoma
SK-MEL-2 melanoma = tested on: SK-MEL-2 melanoma
HCT-15 colon = tested on: HCT-15 colon
OVCAR-5 ovarian = tested on: OVCAR-5 ovarian
M14 melanoma = tested on: M14 melanoma
KM12 colon = tested on: KM12 colon
SNB-75 CNS = tested on: SNB-75 CNS
BT-549 breast = tested on: BT-549 breast
NCI/ADR-RES ovarian = tested on: NCI/ADR-RES ovarian
SK-MEL-5 melanoma = tested on: SK-MEL-5 melanoma
CCRF-CEM leukemia = tested on: CCRF-CEM leukemia
RXF 393 renal = tested on: RXF 393 renal
NCI-H23 lung = tested on: NCI-H23 lung
UO-31 renal = tested on: UO-31 renal
CAKI-1 renal = tested on: CAKI-1 renal
SN12C renal = tested on: SN12C renal
DU-145 prostate = tested on: DU-145 prostate
UACC-257 melanoma = tested on: UACC-257 melanoma
HL-60(TB) leukemia = tested on: HL-60(TB) leukemia
ACHN renal = tested on: ACHN renal
TK-10 renal = tested on: TK-10 renal
HCT-116 colon = tested on: HCT-116 colon
SW-620 colon = tested on: SW-620 colon
SK-OV-3 ovarian = tested on: SK-OV-3 ovarian
HOP-92 NSCLC = tested on: HOP-92 NSCLC
MDA-MB-231 breast = tested on: MDA-MB-231 breast
SF-295 CNS = tested on: SF-295 CNS
A498 renal = tested on: A498 renal
EKVX NSCLC = tested on: EKVX NSCLC
NCI-H460 lung = tested on: NCI-H460 lung

Cc1[nH]c(C(=O)Nc2ccccc2OCc2cccc(C(=O)NC3CCNC3)c2)c(Cl)c1Cl (centres undefined) gave a GI50 (OVCAR-3 ovarian) of 1.89 µM, a TGI (OVCAR-3 ovarian) of 3.44 µM and a GI50 (SF-539 CNS) of 1.74 µM. It also gave a TGI (SF-539 CNS) of 3.26 µM, a GI50 (UACC-62 melanoma) of 1.67 µM and a TGI (UACC-62 melanoma) of 3.32 µM. It also gave a GI50 (NCI-H226 lung) of 15.3 µM, a TGI (NCI-H226 lung) of 47.3 µM and a GI50 (HCC-2998 colon) of 1.91 µM. For the same compound, the TGI (HCC-2998 colon) was 3.55 µM, the GI50 (MDA-MB-435) was 1.79 µM and the TGI (MDA-MB-435) was 3.33 µM. For the same compound, the GI50 (RPMI-8226 leukemia) was 2.31 µM, the TGI (RPMI-8226 leukemia) was 5.07 µM and the GI50 (SK-MEL-28 melanoma) was 1.86 µM. The TGI (SK-MEL-28 melanoma) was 3.43 µM, the GI50 (SK-MEL-2 melanoma) was 19 µM and the TGI (SK-MEL-2 melanoma) was 57.1 µM. The GI50 (HCT-15 colon) was 4.87 µM, the TGI (HCT-15 colon) was 22.7 µM and the GI50 (OVCAR-5 ovarian) was 1.76 µM. For the same compound, the TGI (OVCAR-5 ovarian) was 3.24 µM, the GI50 (M14 melanoma) was 1.75 µM and the TGI (M14 melanoma) was 3.4 µM. The GI50 (KM12 colon) was 1.94 µM, the TGI (KM12 colon) was 3.69 µM and the GI50 (SNB-75 CNS) was 1.56 µM. For the same compound, the TGI (SNB-75 CNS) was 4.95 µM, the GI50 (BT-549 breast) was 5.15 µM and the TGI (BT-549 breast) was 25.1 µM. It also gave a GI50 (NCI/ADR-RES ovarian) greater than 100 µM, a TGI (NCI/ADR-RES ovarian) greater than 100 µM and a GI50 (SK-MEL-5 melanoma) of 5.25 µM. For the same compound, the TGI (SK-MEL-5 melanoma) was 19.2 µM, the GI50 (CCRF-CEM leukemia) was 1.91 µM and the TGI (CCRF-CEM leukemia) was 4.46 µM. It also gave a GI50 (RXF 393 renal) of 2.07 µM, a TGI (RXF 393 renal) of 4.9 µM and a GI50 (NCI-H23 lung) of 1.91 µM. For the same compound, the TGI (NCI-H23 lung) was 3.89 µM, the GI50 (UO-31 renal) was 15.4 µM and the TGI (UO-31 renal) was 51.1 µM. It also gave a GI50 (CAKI-1 renal) of 2.05 µM, a TGI (CAKI-1 renal) of 5.1 µM and a GI50 (SN12C renal) of 11 µM. The TGI (SN12C renal) was 27.7 µM, the GI50 (DU-145 prostate) was 1.88 µM and the TGI (DU-145 prostate) was 3.37 µM. It also gave a GI50 (UACC-257 melanoma) of 5.75 µM, a TGI (UACC-257 melanoma) of 31.1 µM and a GI50 (HL-60(TB) leukemia) of 2.21 µM. The TGI (HL-60(TB) leukemia) was 5.11 µM, the GI50 (ACHN renal) was 3.17 µM and the TGI (ACHN renal) was 11.5 µM. It also gave a GI50 (TK-10 renal) of 2.86 µM, a TGI (TK-10 renal) of 7.19 µM and a GI50 (HCT-116 colon) of 1.85 µM. For the same compound, the TGI (HCT-116 colon) was 3.67 µM, the GI50 (SW-620 colon) was 1.86 µM and the TGI (SW-620 colon) was 3.54 µM. It also gave a GI50 (SK-OV-3 ovarian) of 23.6 µM, a TGI (SK-OV-3 ovarian) of 47.3 µM and a GI50 (HOP-92 NSCLC) of 3.57 µM. It also gave a TGI (HOP-92 NSCLC) of 20.5 µM, a GI50 (MDA-MB-231 breast) of 1.88 µM and a TGI (MDA-MB-231 breast) of 3.59 µM. The GI50 (SF-295 CNS) was 4.52 µM, the TGI (SF-295 CNS) was 38.9 µM and the GI50 (A498 renal) was 12.6 µM. The TGI (A498 renal) was 26.7 µM, the GI50 (EKVX NSCLC) was 1.95 µM and the TGI (EKVX NSCLC) was 4.64 µM. For the same compound, the GI50 (NCI-H460 lung) was 1.9 µM and the TGI (NCI-H460 lung) was 3.58 µM.
